Converted amounts (≈) assume the structure as drawn. “And” between values parts separate entries of the source, which are not always exact repeats. Equal values may be shown once. Read-outs that look alike come from different tables or passages of the source.
How the values were obtained:
E. coli K12 MG1655 = assay: MIC testing by CLSI broth microdilution in M9-based minimal media ATCC 2511, with or without methionine; type: cell-based, Escherichia coli; settings: for MIC90: Escherichia coli; for antibacterial activity against E. coli in words: E. coli K12
Procedure: To explore the SAR around the right hand aryl portion of the TAT series (Table 1), compounds were evaluated for their in vitro antibacterial activity against E. coli in the M9-based minimal media ATCC 2511. […]. An MIC shift between the two medias was used to indicate that antibacterial activity of the compounds remained on target, and this was happily seen with all of the most MIC active compounds generated in this study. Within the first series of compounds in Table 1, modifications to the phenyl ring are generally well tolerated. MICs remain within 2-fold of the initial hit 1 for the fluoro- and cyano- substituted compounds 1–8. […]. Incorporating the electron-donating group -OMe and sterically bulky iodine group in both ortho and para position, 17–20, maintained activity, whereas the introduction of the strong electron-withdrawing -CF3 group, 21 and 22, led to poorer MIC activity. […] The phenyl ring isosteres—thiazoles 25 and 26—both retained good MIC activity. Adding a methyl branch to the thioacetamide linker 28 and 29 led to a striking loss of activity. Replacement of the aryl group with the aliphatic groups cyclohexyl 31, cyclopentyl 32, tert-butyl groups 33 all reduced activity.
MICs were determined following CLSI broth microdilution susceptibility M100 guidelines. Compound solutions were prepared in DMSO and serially diluted 1:2 in 100 μL/well in 96 well round-bottom plates. E. coli K12 MG1655 was acquired from ATCC and strictly maintained in the M9-based media ATCC 2511. ATCC 2511 was also used for all further cultivation and MIC testing. Bacteria were grown from a single colony to a mid-log OD600 and frozen in 0.5 mL aliquots. These aliquots were used to directly inoculate the assay plates by diluting to an OD600 of 0.001 and plating 100 μL per well, allowing for ~10^5 CFU to be added to each well.

E. coli K12 = assay: Whole cell accumulation in E. coli K12 (LC-MS/MS); parameters: dose or concentration left out as unconfirmed; settings: 10 min, 37 °C; average of three biological replicates
Procedure: Drug uptake in whole cell E. coli K12, was performed following a modified protocol adapted from previously published studies [17, 25, 26, 27]. […] After incubation, 800 mL of antibiotic-exposed cells were spun (3 min, 13,000× g) through 700 mL of a 9:1 mix of AR20 and high temperature silicon oils (cooled to −80°C). The supernatant of silicone oil and free compound in PBS was carefully removed from pellet. Intracellular concentration of antibiotics within the bacterial cells was then determined.
For lysis, cells were resuspended in 200 mL of water and lysed by three freeze-thaw cycles of 3 min each in liquid nitrogen and in a 60 °C water bath. Lysed cells were pelleted and 150 mL of aqueous extract was transferred to a clean 1.5 mL microcentrifuge tube. Cell debris was resuspended in the remaining 50 mL of water and then extracted with 100 mL of methanol. Cells were again centrifuged, 100 mL of the methanol extract were removed and combined with the water supernatant. The extracts were allowed to rest at room temperature for 1 h before being centrifuged for 10 min at 20,000× g. Finally, extracts were filtered through a 0.22mm spin column to remove any remaining cellular debris.
Samples were analyzed with a Waters Acquity M Class series UPLC system and Xevo G2 QTOF tandem MS/MS with Zspray. Using a Phenomenex Kinetex 2.6 μm XB-C18, 100 Å (300 μm × 150 mm) column with solvent A, 0.1% formic acid in water, and solvent B, 0.1% formic acid in acetonitrile, 250 nL of extract were separated. […] High-resolution spectra were calibrated by co-infusion of 2 ng/mL leucine enkephalin lockspray (Waters). Data were quantified using Waters MassLynx software where the AUC was determined by integrating the daughter peak of the parent ion. Concentrations of the unknown compounds were determined by the linear fit of the standard curve. Concentrations were normalized to the culture density, determined via titers, to 10^10 CFU and are reported as the average of three biological replicates.

Solubility = type: physicochemical; settings: pH 7.4 (Table S1); for solubility: read-out: Solubility Avg. Sol
Procedure: The in vitro ADME values (solubility, mouse plasma stability, human plasma stability, mouse metabolic stability, and human metabolic stability) were determined as previously reported.

[1] = No Supplement (N.S.), ATCC 2511 media, 16 h, 37 °C, read-out: E. coli K12 MIC90
[2] = MG1655, read-out: E. coli K12 MIC90
[3] = No Supplement (N.S.), ATCC 2511 media, 16 h, 37 °C
[4] = 16 h, read-out: E. coli K12 MIC90

Compound | MIC90 (E. coli K12 MG1655; [1]) [µg/mL] | melting point [°C] | MIC90 (E. coli K12 MG1655; [2]) [µg/mL] | other results
CN(C(=O)CSc1c[nH]nn1)c1ccc(F)cc1 [Compound 23] | 25 (≈ 93.9 µM) | 95 to 96 |  | 
O=C(NCCSc1cnn[nH]1)c1ccc(O)c(O)c1 [Compound 59] | 50 (≈ 178 µM) |  |  | antibacterial activity against E. coli in words (E. coli K12 MG1655): moderate activity; Whole Cell Accumulation in E. coli (E. coli K12): 1.0 ± 0.1 μM/10^10 CFU
O=C(CSc1cnn[nH]1)NCc1cccc(F)c1 [Compound 41] | 6.3 (≈ 23.7 µM) | 85 to 86 |  | 
CN1CCN(c2ccc(NC(=O)CSc3cnn[nH]3)cc2)CC1 [Compound 56] | > 200 |  |  | Whole Cell Accumulation in E. coli (E. coli K12): 4.7 ± 2 μM/10^10 CFU
Cn1nncc1SCC(=O)Nc1ccccc1F [Compound 70] | > 200 |  |  | antibacterial activity against E. coli in words (E. coli K12 MG1655): inactive
O=C(CSc1c[nH]nn1)Nc1cccc(F)c1 [Compound 7, 2-[(1H-1,2,3-triazol-4-yl)sulfanyl]-N-(3-fluorophenyl)acetamide] | 1.6 (≈ 6.34 µM) |  | 12.5 (≈ 49.5 µM) | E. coli K12 MIC90 (E. coli K12 MG1655; [3]): ≤ 3.1 µg/mL
Cn1nncc1SCC(=O)Nc1ccccc1 [Compound 68] | > 200 |  |  | antibacterial activity against E. coli in words (E. coli K12 MG1655): inactive
O=C(CSc1cnn[nH]1)NCc1ccc(OC(F)(F)F)cc1 [Compound 45] | 100 (≈ 301 µM) | 131 to 133 |  | 
O=C(CSc1cnn[nH]1)NCc1ccc(C(F)(F)F)cc1 [Compound 44] | 50 (≈ 158 µM) | 133 to 135 |  | 
CN(Cc1ccccc1F)C(=O)CSc1cnn[nH]1 [Compound 46] | 50 (≈ 178 µM) |  |  | 
CCCSc1ccc2nc(NC(=O)OC)[nH]c2c1 [Albendazole, reference compound] |  |  |  | solubility (Solubility; aqueous buffer): 5.33 µg/mL and 20.1 µM; %Soluble (Solubility): 20.1%
NC(=O)N1c2ccccc2C=Cc2ccccc21 [Carbamazepine, reference compound] |  |  |  | %Soluble (Solubility): 85.1%; solubility (Solubility; pH 7.4, aqueous buffer): 20.1 µg/mL and 85.1 µM
O=C(N[C@H](CO)[C@H](O)c1ccc([N+](=O)[O-])cc1)C(Cl)Cl [Chloramphenicol, reference compound] | 1.6 (≈ 4.95 µM) |  |  | 
Cn1cc(SCC(=O)Nc2ccccc2)nn1 [Compound 69] | > 200 |  |  | antibacterial activity against E. coli in words (E. coli K12 MG1655): inactive
O=C(CSc1c[nH]nn1)Nc1ncccc1F [Compound 13, 2-[(1H-1,2,3-triazol-4-yl)sulfanyl]-N-(3-fluoropyridin-2-yl)acetamide] | 6.3 (≈ 24.9 µM) | 99 to 100 | 25 (≈ 98.7 µM) | 
Cc1nnc(SCC(=O)Nc2ccccc2F)s1 [Compound 67] | > 200 | 111 to 113 |  | antibacterial activity against E. coli in words (E. coli K12 MG1655): inactive
O=C(CSc1cnn[nH]1)Nc1ccc(N2C[C@@H]3NCCO[C@H]3C2)cc1 [Compound 53] | > 200 |  |  | Whole Cell Accumulation in E. coli (E. coli K12): 19 ± 1 μM/10^10 CFU
Cc1nnc(SCC(=O)Nc2ccccc2)s1 [Compound 64] | > 200 | 153 to 154 |  | antibacterial activity against E. coli in words (E. coli K12 MG1655): inactive
O=C(CSc1cnn[nH]1)NCc1ccc(F)cc1 [Compound 39, 2-[(1H-1,2,3-triazol-5-yl)sulfanyl]-N-(4-fluorobenzyl)acetamide] | 6.3 (≈ 23.7 µM) | 122 to 124 | 50 (≈ 188 µM) | 
O=C(CSc1c[nH]nn1)NC1CCCCC1 [Compound 31] | 25 (≈ 104 µM) | 118 to 119 |  | 
O=C(CSc1c[nH]nn1)Nc1ccccc1C(F)(F)F [Compound 21] | 25 (≈ 82.7 µM) | 83 to 85 |  | 
O=C(CSc1c[nH]nn1)Nc1ncccn1 [Compound 27] | 25 (≈ 106 µM) | 136 to 138 |  | 
O=C(CSc1cnn[nH]1)NCc1ccccc1F [Compound 38, 2-[(1H-1,2,3-triazol-5-yl)sulfanyl]-N-(2-fluorobenzyl)acetamide] | 3.1 (≈ 11.6 µM) |  |  | 
Cc1cc(NS(=O)(=O)c2ccc(N)cc2)no1 [Sulfamethoxazole, reference compound] |  |  |  | MIC90 (E. coli K12 MG1655; [4]): 0.98 µg/mL (≈ 3.87 µM)

Compound | MIC90 (E. coli K12 MG1655; [1]) [µg/mL] | melting point [°C] | MIC90 (E. coli K12 MG1655; [2]) [µg/mL] | other results
O=C(CSc1cnn[nH]1)Nc1ccccc1 [Compound 11] | 1.6 (≈ 6.83 µM) |  | 6.3 (≈ 26.9 µM) | 
O=C(CSc1cnn[nH]1)NCc1ccccn1 [Compound 40] | 12.5 (≈ 50.1 µM) |  | > 50 | 
CCOC(=O)c1cnc(NC(=O)CSc2c[nH]nn2)s1 [Compound 26, Ethyl 2-{2-[(1H-1,2,3-triazol-4-yl)sulfanyl]acetamido}thiazole-5-carboxylate] | 3.1 (≈ 9.89 µM) | 172 to 174 | 12.5 (≈ 39.9 µM) | 
N#Cc1ccc(NC(=O)CSc2c[nH]nn2)nc1 [Compound 16, 2-[(1H-1,2,3-triazol-4-yl)sulfanyl]-N-(5-cyanopyridin-2-yl)acetamide] | 3.1 (≈ 11.9 µM) | 118 to 119 | 6.3 (≈ 24.2 µM) | 
3-[(1H-1,2,3-triazol-4-yl)sulfanyl]-N-(2-fluorophenyl)propenamide [Compound 30] |  |  |  | E. coli K12 MIC90 (E. coli K12 MG1655; +20 μg/mL Methionine): 25 µg/mL; E. coli K12 MIC90 (E. coli K12 MG1655; [3]): 6.3 µg/mL
O=C(CSc1nncs1)Nc1ccccc1F [Compound 66] | > 200 | 123 to 125 |  | antibacterial activity against E. coli in words (E. coli K12 MG1655): inactive
Cn1nnnc1SCC(=O)Nc1ccccc1F [Compound 65] | > 200 | 137 to 139 |  | antibacterial activity against E. coli in words (E. coli K12 MG1655): inactive
Cn1cc(SCC(=O)Nc2ccccc2F)nn1 [Compound 71] | > 200 |  |  | antibacterial activity against E. coli in words (E. coli K12 MG1655): inactive
COc1cc(Cc2cnc(N)nc2N)cc(OC)c1OC [Trimethoprim, reference compound] |  |  |  | MIC90 (E. coli K12 MG1655; [4]): 0.98 µg/mL (≈ 3.38 µM)
N#Cc1cccnc1NC(=O)CSc1c[nH]nn1 [Compound 12] | 25 (≈ 96 µM) | 113 to 114 |  | 
O=C(CSc1c[nH]nn1)Nc1ccc(C(F)(F)F)cc1 [Compound 22] | 25 (≈ 82.7 µM) | 163 to 165 |  | 
Cn1nnnc1SCC(=O)Nc1ccccc1 [Compound 62] | > 200 |  |  | antibacterial activity against E. coli in words (E. coli K12 MG1655): inactive
CCN(C(=O)CSc1c[nH]nn1)c1ccccc1F [Compound 24] | 12.5 (≈ 44.6 µM) | 82 to 83 | 25 (≈ 89.2 µM) | 
O=C(CSc1nncs1)Nc1ccccc1 [Compound 63] | > 200 | 109 to 110 |  | antibacterial activity against E. coli in words (E. coli K12 MG1655): inactive
O=C(CSc1c[nH]nn1)NC1CCCC1 [Compound 33] | 12.5 (≈ 55.2 µM) | 108 to 109 | 25 (≈ 110 µM) | 
N#Cc1ccc(NC(=O)CSc2c[nH]nn2)cn1 [Compound 15, 2-[(1H-1,2,3-triazol-4-yl)sulfanyl]-N-(6-cyanopyridin-3-yl)acetamide] | 6.3 (≈ 24.2 µM) | 198 to 199 | 50 (≈ 192 µM) | 
O=C(CSc1cnn[nH]1)NCc1cc(F)cc(C(F)(F)F)c1 [Compound 42] | 50 (≈ 150 µM) | 82 to 84 |  | 
COc1ccc(NC(=O)CSc2c[nH]nn2)cc1 [Compound 18, 2-[(1H-1,2,3-triazol-4-yl)sulfanyl]-N-(4-methoxyphenyl)acetamide] | 3.1 (≈ 11.7 µM) | 130 to 131 | 12.5 (≈ 47.3 µM) | 
O=C(CSc1c[nH]nn1)Nc1ccc(F)cn1 [Compound 14, 2-[(1H-1,2,3-triazol-4-yl)sulfanyl]-N-(5-fluoropyridin-2-yl)acetamide] | 3.1 (≈ 12.2 µM) | 151 to 153 | 12.5 (≈ 49.4 µM) | 
O=C(CSc1c[nH]nn1)Nc1ccccc1I [Compound 19, 2-[(1H-1,2,3-triazol-4-yl)sulfanyl]-N-(2-iodophenyl)acetamide] | 3.1 (≈ 8.61 µM) | 122 to 124 |  | 
O=C(CSc1c[nH]nn1)Nc1ccncc1 [Compound 10] | 12.5 (≈ 53.1 µM) | 187 to 188 | 50 (≈ 213 µM) | fold change (loss) in MIC activity relative to initial hit 1 (E. coli K12 MG1655; E. coli K12, no supplement): 8 fold
N#Cc1cccc(NC(=O)CSc2c[nH]nn2)c1 [Compound 8, 2-[(1H-1,2,3-triazol-4-yl)sulfanyl]-N-(3-cyanophenyl)acetamide] | 3.1 (≈ 12 µM) | 158 to 159 | 12.5 (≈ 48.2 µM) | 
COc1ccccc1NC(=O)CSc1c[nH]nn1 [Compound 17, 2-[(1H-1,2,3-triazol-4-yl)sulfanyl]-N-(2-methoxyphenyl)acetamide] | 6.3 (≈ 23.8 µM) | 99 to 100 |  | 
O=C(CSc1c[nH]nn1)Nc1ccc(I)cc1 [Compound 20, 2-[(1H-1,2,3-triazol-4-yl)sulfanyl]-N-(4-iodophenyl)acetamide] | 6.3 (≈ 17.5 µM) | 166 to 168 | 25 (≈ 69.4 µM) | 

Reference: publication PMC8911640, “Synthesis and Structure–Activity Relationship of Thioacetamide-Triazoles against Escherichia coli” (Molecules, 2022)
